Measurements: US20240408162A1, “Use of Extract from Morus alba L. in the Preparation of a Medicament for Preventing and/or Treating a Hepatobiliary Disease” (BEIJING WEHAND-BIO PHARMACEUTICAL CO., LTD, priority 2022, published 2024)

How the values were obtained:
HepG2 hepatocytes = experiment: Palmitic acid-treated HepG2 hepatocytes (non-alcoholic fatty liver model), triglyceride and cholesterol by kit; format: cell-based; settings: PA-treated HepG2, 24 h, DNJ 20 μg/ml
Experimental: HepG2 hepatocytes were cultured overnight in a 6-well plate at a seeding density of 2×10^5 cells/ml after digestion. HepG2 cells were treated with palmitic acid (PA) to create a non-alcoholic fatty liver model, with 0.25% BSA treatment as a control. Cells in the model groups were separately administrated with extracts from Morus alba L. (designed to be 25 μg/ml (containing 17 μg/ml DNJ) based on total alkaloids (SZ-A)) obtained from Example 1, 20 μg/ml DNJ, 5 μg/ml FAG, or 5 μg/ml DAB, and cultured for 24 h. Cells were lysed with the lysis solution containing Triton x-100 after removal of the supernatant, and the triglyceride (TG) and cholesterol (TC) in hepatocytes were detected using a kit.

3T3-L1 adipocytes = experiment: Secretion of adiponectin in 3T3-L1 adipocytes (ELISA of supernatant); format: cell-based; settings: DNJ 80, 40, 20 μg/ml; summary statement
Experimental: Reduced adiponectin levels were independent risk factors for NAFLD and liver dysfunction. Adiponectin might activate liver AMPK, inhibit lipid synthesis, and promote lipid oxidation. Adiponectin might also affect inflammation of hepatic macrophages and fibrosis of hepatic stellate cells. 3T3-L1 pre-adipocytes were cultured in the medium containing calf serum and seeded into a 6-well plate at a density of 2×10^4 cells/ml. […] The supernatant was collected after culture for 8 days, and the concentration of adiponectin in the supernatant was detected using an ELISA kit.

- triglyceride (TG) level in hepatocytes (HepG2 hepatocytes; SZ-A 25 μg/ml (based on total alkaloids)): reduce the triglyceride level
- cholesterol (TC) level in hepatocytes (HepG2 hepatocytes; SZ-A 25 μg/ml): reduced the cholesterol level
Structure (SMILES): OC[C@H]1NC[C@H](O)[C@@H](O)[C@@H]1O [DNJ, 1-deoxynojirimycin]
- concentration of adiponectin (3T3-L1 adipocytes): increase the concentration of adiponectin
